# Calls of active or inactive are those of the source. No cut-off for these calls is given here.
# What was measured:
# Assay type in all cases: functional
# [1] = system: Candida albicans; assay: Antimicrobial activity against Candida albicans assessed as diameter of growth inhibition zone at 1 mg/ml after 48 hr by potato dextrose agar well diffusion method
# [2] = system: Aspergillus niger; assay: Antimicrobial activity against Aspergillus niger assessed as diameter of growth inhibition zone at 1 mg/ml after 48 hr by potato dextrose agar well diffusion method
# [3] = system: Staphylococcus aureus; assay: Antimicrobial activity against Staphylococcus aureus assessed as diameter of growth inhibition zone at 1 mg/ml after 24 hr by nutrient agar well diffusion method; details: for zone of inhibition at 1000 µg/mL: read-out: DIZ
# [4] = system: Bacillus subtilis; assay: Antimicrobial activity against Bacillus subtilis assessed as diameter of growth inhibition zone at 1 mg/ml after 24 hr by nutrient agar well diffusion method; details: for zone of inhibition at 1000 µg/mL: read-out: DIZ
# [5] = system: Klebsiella pneumoniae; assay: Antimicrobial activity against Klebsiella pneumoniae assessed as diameter of growth inhibition zone at 1 mg/ml after 24 hr by nutrient agar well diffusion method
# [6] = system: Escherichia coli; assay: Antimicrobial activity against Escherichia coli assessed as diameter of growth inhibition zone at 1 mg/ml after 24 hr by nutrient agar well diffusion method; details: read-out: DIZ
Compound,inhibition [5],zone of inhibition at 1000 µg/mL [6],zone of inhibition at 1000 µg/mL [3],zone of inhibition at 1000 µg/mL [4],also measured
NYSTATIN,,,,,inhibition zone (IZ) [1]: 36 mm; inhibition zone (IZ) [2]: 25 mm
N#CC(C#N)/N=N/c1nc2ccccc2[nH]1,inactive,10.8 mm,,,inhibition [3]: inactive; inhibition [4]: inactive; inhibition [1]: inactive; inhibition [2]: inactive
CCOC(=O)C(C#N)/N=N/c1nc2ccccc2[nH]1 (stereo not drawn),,8.5 mm,7.5 mm,8 mm,zone of inhibition at 1000 µg/mL ([5]; read-out: DIZ): 9 mm; zone of inhibition at 1000 µg/mL ([1]; read-out: DIZ): 9 mm; zone of inhibition at 1000 µg/mL ([2]; read-out: DIZ): 8.5 mm
CC1(C)S[C@@H]2[C@H](NC(=O)[C@H](N)c3ccccc3)C(=O)N2[C@H]1C(=O)O [AMPICILLIN],inactive,31.2 mm,30.5 mm,29.5 mm,
